Our source for the HC50 and IC50 values is ChEMBL document CHEMBL1152749, “Haemolytic activity, cytotoxicity and membrane cell permeabilization of semi-synthetic and natural lupane- and oleanane-type saponins” (Bioorg Med Chem, 2009).

A short description of data set [1]: Toxicity in sheep erythrocytes assessed as induction of hemolysis. The conditions noted are these: read-out: HD50 (the source's name). It is filed as cell-based, Ovis aries, Erythrocyte.
Data set [2] has as its system A549. The data set is described as follows: Cytotoxicity against human A549 cells after 48 hrs by resazurin reduction test. Format: functional, cell-based. The conditions noted are these: A549, 48 h. (Resazurin is reduced to fluorescent resorufin, in cell work by metabolically active cells.)
Data set [3] relates to DLD-1. The data set is described as follows: Cytotoxicity against human DLD1 cells after 48 hrs by resazurin reduction test. It is filed as functional, cell-based. Particulars: DLD-1, 48 h.
Data set [4] in a line: Cytotoxicity against human WS1 cells after 48 hrs by resazurin reduction test. Format: cell-based. The conditions noted are these: WS1, 48 h.
The subject of data set [5] is A549. As to the kind of experiment: Cell membrane permeabilization in human A549 cells assessed as drug level causing decrease in calcein fluorescence. It is filed as ADME, cell-based.
In data set [6] the test system is DLD-1. The data set is described as follows: Cell membrane permeabilization in human DLD1 cells assessed as drug level causing decrease in calcein fluorescence. Format: ADME, cell-based.
The nature of data set [7]: Cell membrane permeabilization in human WS1 cells assessed as drug level causing decrease in calcein fluorescence. Format: ADME, cell-based.

The IC50 is the concentration that inhibits the measured activity by half.

As for `C[C@@H]1O[C@@H](O[C@H]2[C@H](O[C@H]3CC[C@@]4(C)[C@@H](CC[C@]5(C)[C@@H]4CC=C4[C@@H]6CC(C)(C)CC[C@]6(C(=O)O)CC[C@]45C)[C@]3(C)CO)OC[C@H](O[C@@H]3O[C@H](CO)[C@@H](O)[C@H](O)[C@H]3O)[C@@H]2O)[C@H](O)[C@H](O)[C@H]1O` [HEDERACOLCHISIDE A], the HC50 in data set [1] stood at 22 µM. For the same molecule, the IC50 was 59 µM in data set [2]; 62 µM in data set [3]; 58 µM in data set [4]; 110 µM in data set [5]; 159 µM in data set [6]; 86 µM in data set [7].
`C=C(C)[C@@H]1CC[C@]2(C(=O)O)CC[C@]3(C)[C@H](CC[C@@H]4[C@@]5(C)CC[C@H](O[C@@H]6O[C@H](CO)[C@@H](O)[C@H](O)[C@H]6O)C(C)(C)[C@@H]5CC[C@]43C)[C@@H]12`: in data set [1], the HC50 is more than 100 µM. For the same molecule, the IC50 was more than 100 µM in data set [2]; 32 µM in data set [3]; more than 100 µM in data set [4]; more than 200 µM in data set [5]; more than 200 µM in data set [6]; more than 200 µM in data set [7].
For `C=C(C)[C@@H]1CC[C@]2(C(=O)O)CC[C@]3(C)[C@H](CC[C@@H]4[C@@]5(C)CC[C@H](O[C@@H]6OC[C@H](O)[C@H](O)[C@H]6O[C@@H]6O[C@@H](C)[C@H](O)[C@@H](O)[C@H]6O)C(C)(C)[C@@H]5CC[C@]43C)[C@@H]12`, the HC50 in data set [1] worked out at 78 µM. The IC50 in data set [2] was more than 100 µM; in data set [3], more than 100 µM; in data set [4], more than 100 µM; in data set [5], more than 200 µM; in data set [6], more than 200 µM; in data set [7] it was more than 200 µM.
Turning to `CC1(C)CC[C@]2(C(=O)O)CC[C@]3(C)C(=CC[C@@H]4[C@@]5(C)CC[C@H](O[C@@H]6OC[C@H](O)[C@H](O)[C@H]6O)[C@@](C)(CO)[C@@H]5CC[C@]43C)[C@@H]2C1`, the HC50 in data set [1] turned out to be 12 µM. Also, the IC50 is 58 µM in data set [2]; 57 µM in data set [3]; 30 µM in data set [4]; 40 µM in data set [5]; 54 µM in data set [6]; 51 µM in data set [7].
Take `C[C@@H]1O[C@@H](O[C@H]2[C@H](O[C@H]3CC[C@]4(C)[C@H]5CC=C6[C@@H]7CC(C)(C)CC[C@]7(C(=O)O)CC[C@@]6(C)[C@]5(C)CC[C@H]4C3(C)C)OC[C@H](O[C@@H]3O[C@H](CO)[C@@H](O)[C@H](O)[C@H]3O)[C@@H]2O)[C@H](O)[C@H](O)[C@H]1O` [HEDERACOLCHISIDE A1]: in data set [1], the HC50 was determined as 1.7 µM. Also, the IC50 in data set [2] was 15 µM; in data set [3] it was 16 µM; in data set [4], 5.7 µM; in data set [5], 4 µM; in data set [6], 4 µM; in data set [7] it was 3 µM.
In the case of `C=C(C)[C@@H]1CC[C@]2(C(=O)O)CC[C@]3(C)[C@H](CC[C@@H]4[C@@]5(C)CC[C@H](O[C@@H]6O[C@@H](CO)[C@H](O)[C@H]6O)C(C)(C)[C@@H]5CC[C@]43C)[C@@H]12`, the HC50 in data set [1] was more than 100 µM. Further, the IC50 is more than 100 µM in data set [2]; more than 100 µM in data set [3]; more than 100 µM in data set [4]; more than 200 µM in data set [5]; more than 200 µM in data set [6]; more than 200 µM in data set [7].
For `C=C(C)[C@@H]1CC[C@]2(CO)CC[C@]3(C)[C@H](CC[C@@H]4[C@@]5(C)CC[C@H](O[C@@H]6O[C@H](CO)[C@@H](O)[C@H](O)[C@H]6O)C(C)(C)[C@@H]5CC[C@]43C)[C@@H]12`, the HC50 in data set [1] is more than 100 µM. For the same molecule, the IC50 was more than 100 µM in data set [2]; more than 100 µM in data set [3]; more than 100 µM in data set [4]; more than 200 µM in data set [5]; more than 200 µM in data set [6]; more than 200 µM in data set [7].
On to `C=C(C)[C@@H]1CC[C@]2(CO)CC[C@]3(C)[C@H](CC[C@@H]4[C@@]5(C)CC[C@H](O[C@@H]6O[C@@H](CO)[C@H](O)[C@H]6O)C(C)(C)[C@@H]5CC[C@]43C)[C@@H]12`, for which the HC50 in data set [1] was more than 100 µM. For the same molecule, the IC50 is more than 100 µM in data set [2]; more than 100 µM in data set [3]; more than 100 µM in data set [4]; more than 200 µM in data set [5]; more than 200 µM in data set [6]; more than 200 µM in data set [7].
As for `C=C(C)[C@@H]1CC[C@]2(C(=O)O)CC[C@]3(C)[C@H](CC[C@@H]4[C@@]5(C)CC[C@H](O[C@H]6OC[C@@H](O)[C@@H](O)[C@@H]6O)C(C)(C)[C@@H]5CC[C@]43C)[C@@H]12`, in data set [1], the HC50 is more than 100 µM. Moreover, the IC50 in data set [2] was 10 µM; in data set [3] it was 17 µM; in data set [4] it was 47 µM; in data set [5] it was more than 200 µM; in data set [6], more than 200 µM; in data set [7], more than 200 µM.
As to `C[C@@H]1O[C@@H](O[C@H]2[C@H](O[C@H]3CC[C@]4(C)[C@H]5CC=C6[C@@H]7CC(C)(C)CC[C@]7(C(=O)O)CC[C@@]6(C)[C@]5(C)CC[C@H]4C3(C)C)OC[C@H](O)[C@@H]2O)[C@H](O)[C@H](O)[C@H]1O`, the HC50 in data set [1] amounted to 2 µM. Moreover, the IC50 in data set [2] is 15 µM; in data set [3], 30 µM; in data set [4], 14 µM; in data set [5] it was 3 µM; in data set [6] it was 4 µM; in data set [7], 2.8 µM.
As for `C=C(C)[C@@H]1CC[C@]2(C(=O)O)CC[C@]3(C)[C@H](CC[C@@H]4[C@@]5(C)CC[C@H](O[C@@H]6O[C@@H](C)[C@H](O)[C@@H](O)[C@H]6O)C(C)(C)[C@@H]5CC[C@]43C)[C@@H]12`, the HC50 in data set [1] is more than 100 µM. In addition, the IC50 in data set [2] was 2.6 µM; in data set [3], 3.9 µM; in data set [4] it was 31 µM; in data set [5] it was more than 200 µM; in data set [6] it was more than 200 µM; in data set [7], more than 200 µM.
For the molecule `C=C(C)[C@@H]1CC[C@]2(CO)CC[C@]3(C)[C@H](CC[C@@H]4[C@@]5(C)CC[C@H](O[C@@H]6OC[C@H](O)[C@H](O)[C@H]6O[C@@H]6O[C@@H](C)[C@H](O)[C@@H](O)[C@H]6O)C(C)(C)[C@@H]5CC[C@]43C)[C@@H]12`, the HC50 in data set [1] is more than 100 µM. Also, the IC50 in data set [2] is more than 100 µM; in data set [3], more than 100 µM; in data set [4] it was more than 100 µM; in data set [5] it was more than 200 µM; in data set [6], more than 200 µM; in data set [7], more than 200 µM.
In the case of `C=C(C)[C@@H]1CC[C@]2(CO)CC[C@]3(C)[C@H](CC[C@@H]4[C@@]5(C)CC[C@H](O[C@@H]6OC[C@H](O)[C@H](O)[C@H]6O)C(C)(C)[C@@H]5CC[C@]43C)[C@@H]12`, in data set [1], the HC50 is more than 100 µM. In addition, the IC50 in data set [2] was more than 100 µM; in data set [3], more than 100 µM; in data set [4], more than 100 µM; in data set [5], more than 200 µM; in data set [6], more than 200 µM; in data set [7], more than 200 µM.
As to `CC1(C)CC[C@]2(C(=O)O)CC[C@]3(C)C(=CC[C@@H]4[C@@]5(C)CC[C@H](O[C@@H]6O[C@H](CO)[C@@H](O)[C@H](O)[C@H]6O)[C@@](C)(CO)[C@@H]5CC[C@]43C)[C@@H]2C1` [Hederagenin-3-O-beta-D-glucopyranoside], the HC50 in data set [1] stood at 16 µM. For the same molecule, the IC50 in data set [2] was 59 µM; in data set [3], 59 µM; in data set [4], 32 µM; in data set [5], 65 µM; in data set [6], 89 µM; in data set [7], 102 µM.
Take `C[C@@H]1O[C@@H](O[C@H]2[C@H](O[C@H]3CC[C@@]4(C)[C@@H](CC[C@]5(C)[C@@H]4CC=C4[C@@H]6CC(C)(C)CC[C@]6(C(=O)O)CC[C@]45C)[C@]3(C)CO)OC[C@H](O)[C@@H]2O)[C@H](O)[C@H](O)[C@H]1O` [ALPHA-HEDERIN]: in data set [1], the HC50 turned out to be 10 µM. Also, the IC50 in data set [2] is 33 µM; in data set [3] it was 60 µM; in data set [4], 30 µM; in data set [5], 28 µM; in data set [6], 38 µM; in data set [7], 24 µM.
Regarding `CC1(C)CC[C@]2(C(=O)O)CC[C@]3(C)C(=CC[C@@H]4[C@@]5(C)CC[C@H](O)[C@@](C)(CO)[C@@H]5CC[C@]43C)[C@@H]2C1` [HEDERAGENIN], in data set [1], the HC50 is more than 100 µM. Moreover, the IC50 in data set [2] is 39 µM; in data set [3] it was more than 100 µM; in data set [4] it was 77 µM; in data set [5], more than 200 µM; in data set [6], more than 200 µM; in data set [7], more than 200 µM.
For `C=C(C)[C@@H]1CC[C@]2(C(=O)O)CC[C@]3(C)[C@H](CC[C@@H]4[C@@]5(C)CC[C@H](O[C@@H]6OC[C@H](O[C@@H]7O[C@H](CO)[C@@H](O)[C@H](O)[C@H]7O)[C@H](O)[C@H]6O[C@@H]6O[C@@H](C)[C@H](O)[C@@H](O)[C@H]6O)C(C)(C)[C@@H]5CC[C@]43C)[C@@H]12`, the HC50 in data set [1] was determined as 94 µM. In addition, the IC50 in data set [2] was more than 50 µM; in data set [3], more than 50 µM; in data set [4], more than 50 µM; in data set [5] it was more than 200 µM; in data set [6] it was more than 200 µM; in data set [7], more than 200 µM.
Take `C=C(C)[C@@H]1CC[C@]2(C(=O)O[C@@H]3O[C@H](CO)[C@@H](O)[C@H](O)[C@H]3O)CC[C@]3(C)[C@H](CC[C@@H]4[C@@]5(C)CC[C@H](O[C@@H]6OC[C@H](O)[C@H](O)[C@H]6O[C@@H]6O[C@@H](C)[C@H](O)[C@@H](O)[C@H]6O)C(C)(C)[C@@H]5CC[C@]43C)[C@@H]12`: the HC50 in data set [1] was more than 100 µM. Moreover, the IC50 was more than 50 µM in data set [2]; more than 50 µM in data set [3]; more than 50 µM in data set [4]; more than 200 µM in data set [5]; more than 200 µM in data set [6]; more than 200 µM in data set [7].
